Results published in patent US11219611B2 (Ocera Therapeutics, Inc., priority 2015, dated 2022).

Key:
[1] = Phase 1 single-dose crossover study in healthy subjects: plasma PAA and PAGN pharmacokinetics
Description: Plasma samples were analyzed for concentrations of phenylacetic acid (PAA), phenylacetylglutamine (PAGN) and ornithine (ORN) using a validated LC-MS/MS method. All urine samples were analyzed for concentrations of PAGN using a validated LC-MS/MS method.
Pharmacokinetics: Plasma concentration vs. time profiles of phenylacetate, ornithine, and phenylacetylglutamine following a single oral dose of each of the study drug were analyzed by noncompartmental PK methods. Pharmacokinetic parameters that were determined include Cmax, tmax, AUC0-t, AUC0-∞, C12 and t1/2.

[2] = Phase 1 study in healthy subjects: urinary excretion of PAGN over 24 hours; assay type: in vivo, human; conditions: single oral dose; for Percent PAA Dose Excreted over 24 hours: urine as PAGN
Description: Plasma samples were separated by centrifugation within 1 hour of blood collection and stored at approximately −80° C. until analyzed. The total urine volume for each collection interval were measured and recorded and aliquots of urine were stored at approximately −80° C. until analyzed.

[3] = test system: hepatic encephalopathy; conditions: cited from earlier work
[4] = test system: ammonia; conditions: clinical study reported by Jalan et al. 2007; cited from earlier work

Compound | time after dosing at which mean plasma PAGN Cmax occurred ([1]; single oral dose (10 g extended-release formulation or 6 mL RAVICTI)) | mean maximum concentration (Cmax) of plasma PAA ([1]; single oral dose (10 g extended-release formulation or 6 mL RAVICTI, each about 5 g PAA equivalent)) | PAA converted to PAGN excretion over 24 hours (conversion efficiency) ([2]; Table 2) | Percent PAA Dose Excreted over 24 hours ([2]; mean) [%] | Percent PAA Dose Excreted over 24 hours ([2]; median) [%] | Total PAGN Amount Excreted over 24 hours ([2]; urine, mean) [G] | PAA Equivalents Excreted over 24 hours ([2]; urine, median) [G] | Total PAGN Amount Excreted over 24 hours ([2]; urine, median) [G] | incidence of hepatic encephalopathy events ([3]; clinical studies, 6 mL twice daily) | efficacy for the treatment of hepatic encephalopathy ([3]; clinical trials (Rockey et al., Hepatology 2014)) | ammonia lowering [4]
O=C(CCCc1ccccc1)OCC(COC(=O)CCCc1ccccc1)OC(=O)CCCc1ccccc1 [RAVICTI®, glycerol phenylbutyrate] | approximately 5 hours | approximately 10 μg/mL | about 40% | 42.7 | 42.1 | 4.11 | 2.09 | 4.06 | lower the incidence of hepatic encephalopathy events | preliminary efficacy | 
L-ornithine phenylacetate |  |  |  |  |  |  |  |  |  |  | useful in ammonia lowering
